Experiments:
[1] = target: Sigma non-opioid intracellular receptor 1 (Homo sapiens, UniProt Q99720); assay: DRUGMATRIX: Sigma1 radioligand binding (ligand: [3H] Haloperidol); format: cell membranes, Jurkat, Membrane; settings: Not Active = under 50% inhibition at 10 µM
D(1A) dopamine receptor = D(1A) dopamine receptor (Homo sapiens, UniProt P21728); assay: DRUGMATRIX: Dopamine D1 radioligand binding (ligand: [3H] SCH-23390); format: cell membranes, CHO, Membrane; settings: Not Active = under 50% inhibition at 10 µM
Sequence of D(1A) dopamine receptor (P21728 whole entry): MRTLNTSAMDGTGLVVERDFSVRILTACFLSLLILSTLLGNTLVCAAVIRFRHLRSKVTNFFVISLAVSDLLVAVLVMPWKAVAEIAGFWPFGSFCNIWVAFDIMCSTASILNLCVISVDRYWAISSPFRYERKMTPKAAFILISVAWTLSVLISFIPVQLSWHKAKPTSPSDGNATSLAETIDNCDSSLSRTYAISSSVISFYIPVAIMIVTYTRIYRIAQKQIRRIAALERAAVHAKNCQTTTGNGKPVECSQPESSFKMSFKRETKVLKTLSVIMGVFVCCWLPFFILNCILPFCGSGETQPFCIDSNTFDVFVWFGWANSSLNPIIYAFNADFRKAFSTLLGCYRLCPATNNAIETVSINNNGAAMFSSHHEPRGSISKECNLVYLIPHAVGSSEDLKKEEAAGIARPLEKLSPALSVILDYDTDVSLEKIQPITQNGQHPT

[2] = target: Sodium-dependent noradrenaline transporter (Homo sapiens, UniProt P23975); assay: DRUGMATRIX: Norepinephrine Transporter radioligand binding (ligand: [125I] RTI-55); format: cell membranes, MDCK, Membrane; settings: Not Active = under 50% inhibition at 10 µM; for Ki: read-out: Ki
Sequence of Sodium-dependent noradrenaline transporter (P23975 whole entry): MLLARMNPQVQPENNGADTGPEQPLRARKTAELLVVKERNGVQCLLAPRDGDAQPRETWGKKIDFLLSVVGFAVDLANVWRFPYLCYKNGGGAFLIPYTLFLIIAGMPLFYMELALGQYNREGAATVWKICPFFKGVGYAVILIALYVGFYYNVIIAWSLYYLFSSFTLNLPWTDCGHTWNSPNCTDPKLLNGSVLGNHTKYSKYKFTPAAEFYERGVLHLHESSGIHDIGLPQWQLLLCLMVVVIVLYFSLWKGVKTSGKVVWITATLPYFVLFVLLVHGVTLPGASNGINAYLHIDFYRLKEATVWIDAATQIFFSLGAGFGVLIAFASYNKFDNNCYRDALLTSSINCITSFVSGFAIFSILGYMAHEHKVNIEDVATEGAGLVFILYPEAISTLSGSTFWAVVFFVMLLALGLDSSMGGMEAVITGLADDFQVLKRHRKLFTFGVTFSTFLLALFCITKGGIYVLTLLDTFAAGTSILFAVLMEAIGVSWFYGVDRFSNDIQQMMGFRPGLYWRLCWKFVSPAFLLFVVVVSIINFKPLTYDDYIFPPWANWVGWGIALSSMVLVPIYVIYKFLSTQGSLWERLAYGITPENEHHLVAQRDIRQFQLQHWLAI

[3] = target: Epidermal growth factor receptor (Homo sapiens, UniProt P00533); assay: DRUGMATRIX: Protein Tyrosine Kinase, EGF Receptor enzyme inhibition (substrate: Poly(Glu:Tyr)); format: cell-based, Insect cells; settings: Not Active = under 50% inhibition at 10 µM
Sequence of Epidermal growth factor receptor (P00533 whole entry): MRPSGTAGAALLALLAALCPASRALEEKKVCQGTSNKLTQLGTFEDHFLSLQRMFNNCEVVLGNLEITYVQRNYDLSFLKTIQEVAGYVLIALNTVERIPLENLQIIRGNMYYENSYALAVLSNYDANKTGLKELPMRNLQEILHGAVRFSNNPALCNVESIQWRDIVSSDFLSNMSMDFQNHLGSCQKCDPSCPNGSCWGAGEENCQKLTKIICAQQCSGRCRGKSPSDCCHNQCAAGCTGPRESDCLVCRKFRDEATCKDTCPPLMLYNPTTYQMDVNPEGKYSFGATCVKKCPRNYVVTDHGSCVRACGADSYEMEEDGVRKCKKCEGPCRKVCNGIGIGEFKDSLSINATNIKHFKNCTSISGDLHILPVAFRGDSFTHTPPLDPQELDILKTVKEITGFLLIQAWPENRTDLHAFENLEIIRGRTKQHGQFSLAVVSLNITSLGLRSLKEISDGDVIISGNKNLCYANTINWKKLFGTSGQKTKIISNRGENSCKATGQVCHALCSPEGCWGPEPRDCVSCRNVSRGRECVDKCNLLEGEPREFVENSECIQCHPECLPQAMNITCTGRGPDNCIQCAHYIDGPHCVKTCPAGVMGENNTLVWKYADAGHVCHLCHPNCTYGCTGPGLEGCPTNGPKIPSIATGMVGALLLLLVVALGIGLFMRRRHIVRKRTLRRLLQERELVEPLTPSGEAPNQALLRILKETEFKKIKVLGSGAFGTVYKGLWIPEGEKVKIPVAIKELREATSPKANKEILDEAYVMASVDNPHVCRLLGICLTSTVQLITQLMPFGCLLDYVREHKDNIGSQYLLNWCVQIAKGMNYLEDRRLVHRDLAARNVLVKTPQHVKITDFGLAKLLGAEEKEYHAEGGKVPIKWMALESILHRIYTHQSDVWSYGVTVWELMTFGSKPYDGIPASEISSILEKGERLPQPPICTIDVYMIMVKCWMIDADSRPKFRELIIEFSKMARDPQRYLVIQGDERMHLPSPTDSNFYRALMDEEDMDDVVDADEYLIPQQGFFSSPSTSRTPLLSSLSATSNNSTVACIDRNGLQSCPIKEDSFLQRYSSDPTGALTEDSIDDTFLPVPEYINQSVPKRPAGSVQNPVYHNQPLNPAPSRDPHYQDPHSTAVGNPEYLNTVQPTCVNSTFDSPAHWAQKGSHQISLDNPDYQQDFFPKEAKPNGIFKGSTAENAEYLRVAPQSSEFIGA

D(4) dopamine receptor = target: T1, D(4) dopamine receptor (Homo sapiens, UniProt P21917); assay: DRUGMATRIX: Dopamine D4.2 radioligand binding (ligand: [3H] Spiperone); format: cell membranes, CHO-K1, Membrane; settings: cho-k1; Not Active = under 50% inhibition at 10 µM
T1 sequence (P21917 whole entry): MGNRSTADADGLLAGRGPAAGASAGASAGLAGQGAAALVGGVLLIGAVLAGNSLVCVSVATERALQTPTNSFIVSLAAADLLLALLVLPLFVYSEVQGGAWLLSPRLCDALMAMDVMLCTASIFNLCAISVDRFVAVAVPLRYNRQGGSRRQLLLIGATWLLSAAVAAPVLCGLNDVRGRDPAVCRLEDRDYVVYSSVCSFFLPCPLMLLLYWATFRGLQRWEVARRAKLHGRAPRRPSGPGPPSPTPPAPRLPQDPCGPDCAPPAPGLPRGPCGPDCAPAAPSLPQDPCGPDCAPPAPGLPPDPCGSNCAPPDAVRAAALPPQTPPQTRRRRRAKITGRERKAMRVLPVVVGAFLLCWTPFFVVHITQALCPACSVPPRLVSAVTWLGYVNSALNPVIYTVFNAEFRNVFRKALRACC

Sequence of Sigma non-opioid intracellular receptor 1 (Q99720 whole entry): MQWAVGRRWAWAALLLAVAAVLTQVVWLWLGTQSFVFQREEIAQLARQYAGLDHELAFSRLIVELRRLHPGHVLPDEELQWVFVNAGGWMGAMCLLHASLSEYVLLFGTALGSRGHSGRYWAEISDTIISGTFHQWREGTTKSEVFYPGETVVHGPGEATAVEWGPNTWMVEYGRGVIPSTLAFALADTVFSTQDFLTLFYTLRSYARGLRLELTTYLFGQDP

| SMILES | IC50 ([1]; jurkat) | IC50 (D(1A) dopamine receptor; cho) | IC50 ([2]; mdck) | IC50 ([3]; insect cells) | IC50 (D(4) dopamine receptor) | IC50 ([2]; read-out: IC50) | Ki [2] | IC50 (D(1A) dopamine receptor; read-out: IC50) | Ki (D(1A) dopamine receptor; read-out: Ki) | IC50 ([3]; read-out: IC50) | IC50 ([1]; read-out: IC50) | Ki ([1]; read-out: Ki) |
| --- | --- | --- | --- | --- | --- | --- | --- | --- | --- | --- | --- | --- |
| CCCNC(C)C(=O)Nc1ccccc1C (stereo not drawn) [PRILOCAINE] | Not Active | Not Active | Not Active | Not Active | Not Active |  |  |  |  |  |  |  |
| NS(=O)(=O)c1cc(C2(O)NC(=O)c3ccccc32)ccc1Cl (stereo not drawn) [CHLORTHALIDONE] | Not Active | Not Active | Not Active | Not Active | Not Active |  |  |  |  |  |  |  |
| CCN(CC)CCCC(C)Nc1c2ccc(Cl)cc2nc2ccc(OC)cc12 (stereo not drawn) [QUINACRINE] | Not Active | Not Active |  | Not Active | Not Active | 2.9 µM | 2.87 µM |  |  |  |  |  |
| CN1CCC(=C2c3ccccc3CC(=O)c3sccc32)CC1 [KETOTIFEN] | Not Active |  | Not Active | Not Active | Not Active |  |  | 0.872 µM | 0.436 µM |  |  |  |
| Cc1c(O)cccc1C(=O)N[C@@H](CSc1ccccc1)[C@H](O)CN1C[C@H]2CCCC[C@H]2C[C@H]1C(=O)NC(C)(C)C | Not Active |  |  |  | Not Active | 8.85 µM | 8.78 µM |  |  | 55.6 µM |  |  |
| Cn1c(=O)c2c(ncn2C)n(C)c1=O [CAFFEINE] | Not Active | Not Active | Not Active |  | Not Active |  |  |  |  |  |  |  |
| CC(C)NCC(O)c1ccccc1Cl (stereo not drawn) [CLORPRENALINE] | Not Active | Not Active | Not Active | Not Active | Not Active |  |  |  |  |  |  |  |
| NC(=O)c1cccnc1 [NIACINAMIDE] | Not Active | Not Active | Not Active | Not Active | Not Active |  |  |  |  |  |  |  |
| C[C@]12C=CC(=O)C=C1CC[C@H]1[C@@H]3C[C@@H](O)[C@](O)(C(=O)CO)[C@@]3(C)C[C@H](O)[C@@]12F [TRIAMCINOLONE] | Not Active | Not Active | Not Active | Not Active | Not Active |  |  |  |  |  |  |  |
| CC(=O)OCC(=O)[C@@]1(O)CC[C@H]2[C@@H]3CCC4=CC(=O)CC[C@]4(C)[C@@]3(F)[C@@H](O)C[C@@]21C [FLUDROCORTISONE ACETATE] | Not Active | Not Active | Not Active | Not Active | Not Active |  |  |  |  |  |  |  |
| CN(C)C(=O)Oc1cccc([N+](C)(C)C)c1.[Br-] [NEOSTIGMINE BROMIDE] | Not Active | Not Active | Not Active | Not Active | Not Active |  |  |  |  |  |  |  |
| C[C@]12CC[C@@H]3c4ccc(O)cc4CC[C@H]3[C@@H]1C[C@@H](O)[C@@H]2O [ESTRIOL] | Not Active | Not Active | Not Active | Not Active | Not Active |  |  |  |  |  |  |  |
| CCN(CC)CCNC(=O)c1ccc(N)cc1 [PROCAINAMIDE] | Not Active | Not Active | Not Active | Not Active | Not Active |  |  |  |  |  |  |  |
| O=C(O)P(=O)(O)O [FOSCARNET] | Not Active | Not Active | Not Active | Not Active | Not Active |  |  |  |  |  |  |  |
| C[C@H]1[C@H](NC(=O)/C(=N\OC(C)(C)C(=O)O)c2csc(N)n2)C(=O)N1S(=O)(=O)O [AZTREONAM] | Not Active | Not Active | Not Active | Not Active | Not Active |  |  |  |  |  |  |  |
| CN1C[C@@H]2C[C@H]1CN2c1cc2c(cc1F)c(=O)c(C(=O)O)cn2C1CC1 [DANOFLOXACIN] | Not Active | Not Active | Not Active | Not Active | Not Active |  |  |  |  |  |  |  |
| CC(=O)OCC(=O)[C@@]12OC(C)(C)O[C@@H]1C[C@H]1[C@@H]3C[C@H](F)C4=CC(=O)C=C[C@]4(C)[C@@]3(F)[C@@H](O)C[C@@]12C [FLUOCINONIDE] | Not Active | Not Active | Not Active | Not Active | Not Active |  |  |  |  |  |  |  |
| CN1CCCC(CN2c3ccccc3Sc3ccccc32)C1 (stereo not drawn) [MEPAZINE] |  | Not Active |  | Not Active | Not Active | 1.88 µM | 1.86 µM |  |  |  | 0.18 µM | 0.076 µM |
| NCCCNCCSP(=O)(O)O [AMIFOSTINE] | Not Active | Not Active | Not Active | Not Active | Not Active |  |  |  |  |  |  |  |
| CC[C@]1(O)C[C@@H]2CN(CCc3c([nH]c4ccccc34)[C@@](C(=O)OC)(c3cc4c(cc3OC)N(C)[C@H]3[C@@](O)(C(N)=O)[C@H](O)[C@]5(CC)C=CCN6CC[C@]43[C@@H]65)C2)C1 [VINDESINE] | Not Active | Not Active | Not Active | Not Active | Not Active |  |  |  |  |  |  |  |

From ChEMBL document CHEMBL1909046, “DrugMatrix in vitro pharmacology data”
